# Assay results from US10231954B2, “Neurodegenerative therapies” (LYTIX BIOPHARMA AS, priority 2014, dated 2019).
# Legend:
# TrkA = TrkA (Homo sapiens, UniProt P04629); assay: Kinase profiling TrkA; type: biochemical; settings: 100 micromolar inhibitor concentration, 100 is no change
# Source text: (§1) Any value less that 25 is considered to be highly significant inhibition.
# PIM1 = PIM1 (Homo sapiens, UniProt P11309); assay: Kinase profiling PIM1; type: biochemical; settings: 100 micromolar inhibitor concentration, 100 is no change
# Source text: as §1
# NEK6 = NEK6 (Homo sapiens, UniProt Q9HC98); assay: Kinase profiling NEK6; type: biochemical; settings: 100 micromolar inhibitor concentration, 100 is no change
# Source text: as §1
# JNK2 = JNK2 (Homo sapiens, UniProt P45984); assay: Kinase profiling JNK2; type: biochemical; settings: 100 micromolar inhibitor concentration, 100 is no change
# Source text: as §1
# HER4 = HER4 (Homo sapiens, UniProt Q15303); assay: Kinase profiling HER4; type: biochemical; settings: 100 micromolar inhibitor concentration, 100 is no change
# Source text: as §1
# CAMK1 = CAMK1 (Homo sapiens, UniProt Q14012); assay: Kinase profiling CAMK1; type: biochemical; settings: 100 micromolar inhibitor concentration, 100 is no change
# Source text: as §1
# TAK1 = molecular target: T1, TAK1 (Homo sapiens, UniProt O43318); assay: Kinase profiling TAK1; type: biochemical; settings: 100 micromolar inhibitor concentration, 100 is no change
# T1 sequence (O43318 1-303 limits assumed): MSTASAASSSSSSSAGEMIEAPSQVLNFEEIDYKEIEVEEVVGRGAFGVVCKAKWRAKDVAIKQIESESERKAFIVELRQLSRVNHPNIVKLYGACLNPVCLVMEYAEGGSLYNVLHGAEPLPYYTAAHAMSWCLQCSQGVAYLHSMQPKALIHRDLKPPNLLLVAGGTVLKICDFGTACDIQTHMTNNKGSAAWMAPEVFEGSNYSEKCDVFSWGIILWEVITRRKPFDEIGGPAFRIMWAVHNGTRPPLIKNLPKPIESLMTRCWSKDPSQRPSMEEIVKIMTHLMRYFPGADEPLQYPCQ
# T1 sequence (Q15750 437-504 partner limits assumed): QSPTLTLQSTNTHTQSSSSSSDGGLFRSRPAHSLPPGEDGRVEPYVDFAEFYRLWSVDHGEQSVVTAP
# Source text: as §1
# AMPK (hum) = assay: Kinase profiling AMPK (hum); type: biochemical, human; settings: 100 micromolar inhibitor concentration; 100 is no change
# Source text: as §1
# PDK1 = molecular target: T2, PDK1 (Homo sapiens, UniProt O15530); assay: Kinase profiling PDK1; type: biochemical; settings: 100 micromolar inhibitor concentration, 100 is no change
# T2 sequence (O15530 1-556): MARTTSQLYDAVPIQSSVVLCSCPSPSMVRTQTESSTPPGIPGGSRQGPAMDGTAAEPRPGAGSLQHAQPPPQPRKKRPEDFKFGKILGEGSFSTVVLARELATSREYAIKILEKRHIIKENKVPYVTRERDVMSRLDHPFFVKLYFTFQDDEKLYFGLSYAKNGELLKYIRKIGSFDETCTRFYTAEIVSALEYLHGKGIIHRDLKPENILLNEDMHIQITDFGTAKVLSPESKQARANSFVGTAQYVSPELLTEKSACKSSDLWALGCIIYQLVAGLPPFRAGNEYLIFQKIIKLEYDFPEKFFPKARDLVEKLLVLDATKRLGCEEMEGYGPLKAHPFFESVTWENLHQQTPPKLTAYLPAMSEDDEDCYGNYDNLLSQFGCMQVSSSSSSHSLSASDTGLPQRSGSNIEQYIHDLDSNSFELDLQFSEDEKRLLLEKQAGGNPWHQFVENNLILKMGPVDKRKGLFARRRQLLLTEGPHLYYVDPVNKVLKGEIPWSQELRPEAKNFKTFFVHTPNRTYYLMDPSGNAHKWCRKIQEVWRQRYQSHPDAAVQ
# Source text: as §1
# HIPK2 = HIPK2 (Homo sapiens, UniProt Q9H2X6); assay: Kinase profiling HIPK2; type: biochemical; settings: 100 micromolar inhibitor concentration, 100 is no change
# Source text: as §1
# JAK2 = JAK2 (Homo sapiens, UniProt O60674); assay: Kinase profiling JAK2; type: biochemical; settings: 100 micromolar inhibitor concentration, 100 is no change
# Source text: as §1
# JNK1 = JNK1 (Homo sapiens, UniProt P45983); assay: Kinase profiling JNK1; type: biochemical; settings: 100 micromolar inhibitor concentration, 100 is no change
# Source text: as §1
# MLK3 = MLK3 (Homo sapiens, UniProt Q16584); assay: Kinase profiling MLK3; type: biochemical; settings: 100 micromolar inhibitor concentration, 100 is no change
# Source text: as §1
# SRPK1 = SRPK1 (Homo sapiens, UniProt Q96SB4); assay: Kinase profiling SRPK1; type: biochemical; settings: 100 micromolar inhibitor concentration, 100 is no change
# Source text: as §1
# PKCγ = PKCγ (Homo sapiens, UniProt P05129); assay: Kinase profiling PKCγ; type: biochemical; settings: 100 micromolar inhibitor concentration, 100 is no change
# Source text: as §1
# PKBa = PKBa (Homo sapiens, UniProt P31749); assay: Kinase profiling PKBa; type: biochemical
# Source text: as §1
# MKK6 = molecular target: T3, MKK6 (Homo sapiens, UniProt P52564); assay: Kinase profiling MKK6; type: biochemical; settings: 100 micromolar inhibitor concentration, 100 is no change
# T3 sequence (P52564 1-334): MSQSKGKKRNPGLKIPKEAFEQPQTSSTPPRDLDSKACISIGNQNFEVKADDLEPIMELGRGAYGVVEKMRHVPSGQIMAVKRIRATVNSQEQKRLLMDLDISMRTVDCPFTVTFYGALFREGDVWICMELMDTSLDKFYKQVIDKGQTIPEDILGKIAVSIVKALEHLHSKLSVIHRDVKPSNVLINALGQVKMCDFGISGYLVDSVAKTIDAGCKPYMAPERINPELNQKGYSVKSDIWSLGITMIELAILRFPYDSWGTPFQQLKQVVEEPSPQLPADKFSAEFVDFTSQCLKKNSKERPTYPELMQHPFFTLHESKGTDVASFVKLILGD
# Source text: as §1
# MSK1 = MSK1 (Homo sapiens, UniProt O75582); assay: Kinase profiling MSK1; type: biochemical; settings: 100 micromolar inhibitor concentration, 100 is no change
# Source text: as §1
# ERK2 = ERK2 (Homo sapiens, UniProt P28482); assay: Kinase profiling ERK2; type: biochemical; settings: 100 micromolar inhibitor concentration, 100 is no change
# Source text: as §1
# p38d MAPK = molecular target: T4, p38d MAPK (Homo sapiens, UniProt O15264); assay: Kinase profiling p38d MAPK; type: biochemical; settings: 100 micromolar inhibitor concentration, 100 is no change
# T4 sequence (O15264 1-365): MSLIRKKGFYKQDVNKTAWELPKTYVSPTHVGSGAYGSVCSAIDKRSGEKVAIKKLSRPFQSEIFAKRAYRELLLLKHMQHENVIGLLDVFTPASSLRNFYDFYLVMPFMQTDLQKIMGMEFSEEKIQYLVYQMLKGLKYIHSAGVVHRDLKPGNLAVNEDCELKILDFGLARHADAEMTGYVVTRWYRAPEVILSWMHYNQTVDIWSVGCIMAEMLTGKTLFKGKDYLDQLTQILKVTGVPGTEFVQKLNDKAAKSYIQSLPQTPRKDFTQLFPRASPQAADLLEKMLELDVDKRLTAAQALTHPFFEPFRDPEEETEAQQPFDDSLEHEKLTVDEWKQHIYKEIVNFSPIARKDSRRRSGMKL
# Source text: as §1
# S6K1 = S6K1 (Homo sapiens, UniProt P23443); assay: Kinase profiling S6K1; type: biochemical; settings: 100 micromolar inhibitor concentration, 100 is no change
# Source text: as §1
# PLK1 = PLK1 (Homo sapiens, UniProt P53350); assay: Kinase profiling PLK1; type: biochemical; settings: 100 micromolar inhibitor concentration, 100 is no change
# Source text: as §1
# Chain of JAK2 (O60674 whole entry, species assumed): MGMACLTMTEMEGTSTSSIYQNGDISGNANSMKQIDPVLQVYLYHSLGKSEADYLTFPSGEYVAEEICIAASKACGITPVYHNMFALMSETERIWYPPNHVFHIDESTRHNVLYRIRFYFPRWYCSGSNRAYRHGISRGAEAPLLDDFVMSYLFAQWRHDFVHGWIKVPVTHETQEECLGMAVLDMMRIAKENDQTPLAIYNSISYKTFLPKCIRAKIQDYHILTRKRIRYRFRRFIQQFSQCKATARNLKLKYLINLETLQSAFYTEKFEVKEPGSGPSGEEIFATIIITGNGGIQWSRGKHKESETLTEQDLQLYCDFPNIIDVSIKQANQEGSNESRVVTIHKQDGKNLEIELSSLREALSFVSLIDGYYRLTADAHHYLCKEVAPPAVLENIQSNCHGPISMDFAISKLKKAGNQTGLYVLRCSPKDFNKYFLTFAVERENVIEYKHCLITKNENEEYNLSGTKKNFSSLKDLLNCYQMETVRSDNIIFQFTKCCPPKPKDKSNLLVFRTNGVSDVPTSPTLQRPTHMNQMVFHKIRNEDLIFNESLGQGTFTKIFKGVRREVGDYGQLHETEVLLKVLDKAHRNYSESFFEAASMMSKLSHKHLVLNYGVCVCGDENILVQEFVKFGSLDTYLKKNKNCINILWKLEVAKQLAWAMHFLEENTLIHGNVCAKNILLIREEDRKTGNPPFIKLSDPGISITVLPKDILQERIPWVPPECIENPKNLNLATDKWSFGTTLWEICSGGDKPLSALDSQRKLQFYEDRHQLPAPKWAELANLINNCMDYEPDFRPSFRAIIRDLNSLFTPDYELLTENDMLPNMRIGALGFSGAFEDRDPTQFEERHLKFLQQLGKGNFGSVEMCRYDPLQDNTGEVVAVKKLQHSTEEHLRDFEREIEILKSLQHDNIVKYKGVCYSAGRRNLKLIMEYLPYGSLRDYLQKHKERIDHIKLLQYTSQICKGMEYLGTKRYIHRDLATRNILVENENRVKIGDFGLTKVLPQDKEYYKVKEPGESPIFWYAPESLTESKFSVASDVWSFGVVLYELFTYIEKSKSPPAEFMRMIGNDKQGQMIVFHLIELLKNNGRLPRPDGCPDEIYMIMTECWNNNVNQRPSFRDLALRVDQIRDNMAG
# Chain of SRPK1 (Q96SB4 whole entry, species assumed): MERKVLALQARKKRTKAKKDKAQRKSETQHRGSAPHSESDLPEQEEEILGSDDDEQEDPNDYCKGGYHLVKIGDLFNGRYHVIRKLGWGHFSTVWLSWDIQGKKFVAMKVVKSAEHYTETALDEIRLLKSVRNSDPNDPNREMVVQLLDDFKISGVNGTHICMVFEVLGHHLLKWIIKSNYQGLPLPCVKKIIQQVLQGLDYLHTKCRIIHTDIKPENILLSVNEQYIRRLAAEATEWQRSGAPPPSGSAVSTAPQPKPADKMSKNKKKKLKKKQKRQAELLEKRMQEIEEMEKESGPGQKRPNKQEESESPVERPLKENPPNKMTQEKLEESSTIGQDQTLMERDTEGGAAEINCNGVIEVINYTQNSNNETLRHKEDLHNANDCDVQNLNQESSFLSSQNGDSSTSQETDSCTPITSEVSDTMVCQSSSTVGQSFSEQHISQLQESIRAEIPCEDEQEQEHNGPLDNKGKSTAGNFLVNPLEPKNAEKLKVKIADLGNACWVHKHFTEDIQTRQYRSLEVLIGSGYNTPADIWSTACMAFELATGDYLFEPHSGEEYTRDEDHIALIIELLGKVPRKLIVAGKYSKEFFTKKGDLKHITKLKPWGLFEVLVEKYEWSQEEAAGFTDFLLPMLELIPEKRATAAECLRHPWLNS
# Chain of PIM1 (P11309 whole entry, species assumed): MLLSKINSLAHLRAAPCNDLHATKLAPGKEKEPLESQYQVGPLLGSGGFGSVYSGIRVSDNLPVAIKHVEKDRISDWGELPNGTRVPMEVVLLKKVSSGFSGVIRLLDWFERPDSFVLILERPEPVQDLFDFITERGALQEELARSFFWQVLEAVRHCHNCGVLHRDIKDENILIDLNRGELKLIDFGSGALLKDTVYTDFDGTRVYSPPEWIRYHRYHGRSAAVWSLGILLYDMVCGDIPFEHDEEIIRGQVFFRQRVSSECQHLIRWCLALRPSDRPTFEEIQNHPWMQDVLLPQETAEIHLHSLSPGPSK
# Chain of JNK2 (P45984 whole entry, species assumed): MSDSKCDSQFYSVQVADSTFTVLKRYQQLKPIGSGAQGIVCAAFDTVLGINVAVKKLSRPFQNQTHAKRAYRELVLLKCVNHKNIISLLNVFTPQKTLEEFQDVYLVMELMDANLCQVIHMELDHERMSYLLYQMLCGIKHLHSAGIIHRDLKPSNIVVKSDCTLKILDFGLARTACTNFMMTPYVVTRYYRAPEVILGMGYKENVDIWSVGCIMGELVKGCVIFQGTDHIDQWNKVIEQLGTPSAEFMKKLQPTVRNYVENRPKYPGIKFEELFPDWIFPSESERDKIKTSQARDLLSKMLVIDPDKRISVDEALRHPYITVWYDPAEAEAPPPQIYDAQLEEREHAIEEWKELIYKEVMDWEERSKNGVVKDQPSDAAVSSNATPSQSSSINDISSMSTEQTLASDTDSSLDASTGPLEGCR
# Chain of PLK1 (P53350 whole entry, species assumed): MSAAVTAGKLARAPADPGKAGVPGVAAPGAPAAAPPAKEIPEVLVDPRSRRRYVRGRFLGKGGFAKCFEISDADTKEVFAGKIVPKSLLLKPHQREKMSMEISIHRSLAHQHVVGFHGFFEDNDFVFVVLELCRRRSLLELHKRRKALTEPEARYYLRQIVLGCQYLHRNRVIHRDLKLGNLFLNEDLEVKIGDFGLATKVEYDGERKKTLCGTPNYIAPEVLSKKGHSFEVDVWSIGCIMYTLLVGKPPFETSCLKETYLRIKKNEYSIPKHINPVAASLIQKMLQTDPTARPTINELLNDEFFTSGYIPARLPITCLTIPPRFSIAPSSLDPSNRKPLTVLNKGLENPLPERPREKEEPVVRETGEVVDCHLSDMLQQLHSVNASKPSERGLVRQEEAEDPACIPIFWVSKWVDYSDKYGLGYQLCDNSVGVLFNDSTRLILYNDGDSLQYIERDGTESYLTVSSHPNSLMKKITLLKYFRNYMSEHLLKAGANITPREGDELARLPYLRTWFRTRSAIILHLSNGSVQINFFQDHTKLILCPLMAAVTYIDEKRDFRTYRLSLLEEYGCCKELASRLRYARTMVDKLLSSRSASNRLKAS
# Chain of HIPK2 (Q9H2X6 whole entry, species assumed): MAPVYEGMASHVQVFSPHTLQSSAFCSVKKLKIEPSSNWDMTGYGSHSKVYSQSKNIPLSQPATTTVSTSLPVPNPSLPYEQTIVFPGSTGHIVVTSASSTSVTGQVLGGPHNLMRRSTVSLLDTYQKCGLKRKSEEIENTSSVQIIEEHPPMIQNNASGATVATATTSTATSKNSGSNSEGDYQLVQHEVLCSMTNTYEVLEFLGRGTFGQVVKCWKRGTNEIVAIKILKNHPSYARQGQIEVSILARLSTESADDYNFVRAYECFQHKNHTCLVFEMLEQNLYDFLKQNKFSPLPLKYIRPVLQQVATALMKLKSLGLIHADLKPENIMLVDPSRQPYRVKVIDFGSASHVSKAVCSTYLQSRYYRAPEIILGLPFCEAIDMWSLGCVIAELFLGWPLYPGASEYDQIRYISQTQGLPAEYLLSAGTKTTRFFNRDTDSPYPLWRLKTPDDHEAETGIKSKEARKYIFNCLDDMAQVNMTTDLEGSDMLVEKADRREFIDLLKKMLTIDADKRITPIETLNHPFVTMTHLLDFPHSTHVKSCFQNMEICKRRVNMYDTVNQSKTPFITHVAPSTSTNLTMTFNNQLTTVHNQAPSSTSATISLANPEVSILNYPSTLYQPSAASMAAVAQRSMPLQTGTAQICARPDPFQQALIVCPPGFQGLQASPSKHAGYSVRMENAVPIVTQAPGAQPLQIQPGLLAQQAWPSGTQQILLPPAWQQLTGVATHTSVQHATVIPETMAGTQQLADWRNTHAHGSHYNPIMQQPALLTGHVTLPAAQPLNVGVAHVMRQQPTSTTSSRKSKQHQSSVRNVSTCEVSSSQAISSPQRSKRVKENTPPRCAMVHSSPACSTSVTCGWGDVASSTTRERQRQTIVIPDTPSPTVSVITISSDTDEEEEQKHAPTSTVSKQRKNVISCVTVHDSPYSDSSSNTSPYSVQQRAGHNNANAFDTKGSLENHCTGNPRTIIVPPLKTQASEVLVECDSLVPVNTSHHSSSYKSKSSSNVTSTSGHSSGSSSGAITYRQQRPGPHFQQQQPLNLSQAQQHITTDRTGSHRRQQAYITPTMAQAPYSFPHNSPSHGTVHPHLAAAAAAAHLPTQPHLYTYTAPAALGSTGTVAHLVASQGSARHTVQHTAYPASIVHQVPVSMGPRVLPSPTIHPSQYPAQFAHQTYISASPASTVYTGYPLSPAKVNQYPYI
# Chain of CAMK1 (Q14012 whole entry, species assumed): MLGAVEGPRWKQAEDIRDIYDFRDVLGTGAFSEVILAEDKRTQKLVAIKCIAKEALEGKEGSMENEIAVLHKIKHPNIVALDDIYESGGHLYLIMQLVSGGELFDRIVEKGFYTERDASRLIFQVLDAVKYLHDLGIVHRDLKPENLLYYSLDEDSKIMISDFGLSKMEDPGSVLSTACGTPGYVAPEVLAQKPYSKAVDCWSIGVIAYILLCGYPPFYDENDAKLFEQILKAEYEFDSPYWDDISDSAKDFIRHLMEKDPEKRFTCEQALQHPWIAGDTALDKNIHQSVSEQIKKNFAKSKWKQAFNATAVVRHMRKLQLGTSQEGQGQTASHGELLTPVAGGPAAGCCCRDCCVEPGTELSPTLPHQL
# Chain of NEK6 (Q9HC98 whole entry, species assumed): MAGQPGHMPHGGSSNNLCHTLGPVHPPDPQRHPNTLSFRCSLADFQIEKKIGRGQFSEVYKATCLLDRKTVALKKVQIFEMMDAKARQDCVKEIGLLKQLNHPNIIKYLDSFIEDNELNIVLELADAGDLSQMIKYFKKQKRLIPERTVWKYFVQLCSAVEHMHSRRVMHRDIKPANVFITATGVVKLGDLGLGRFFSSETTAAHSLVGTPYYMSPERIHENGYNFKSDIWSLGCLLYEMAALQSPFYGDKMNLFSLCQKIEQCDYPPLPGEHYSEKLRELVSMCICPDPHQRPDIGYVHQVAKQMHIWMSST
smiles,measurement,setting,value
COc1ccc2sc(NC(C)=O)nc2c1 [Compound 03-21],remaining activity at 100 µM,"TrkA; read-out: residual kinase activity, TrkA",78%
same,remaining activity at 100 µM,"PIM1; read-out: residual kinase activity, PIM1",8%
same,remaining activity at 100 µM,"NEK6; read-out: residual kinase activity, NEK6",108%
same,remaining activity at 100 µM,"JNK2; read-out: residual kinase activity, JNK2",92%
same,remaining activity at 100 µM,"HER4; read-out: residual kinase activity, HER4",94%
same,remaining activity at 100 µM,"CAMK1; read-out: residual kinase activity, CAMK1",81%
same,remaining activity at 100 µM,"TAK1; read-out: residual kinase activity, TAK1",50%
same,"residual kinase activity, AMPK (hum)",AMPK (hum),81
same,remaining activity at 100 µM,"PDK1; read-out: residual kinase activity, PDK1",115%
same,remaining activity at 100 µM,"HIPK2; read-out: residual kinase activity, HIPK2",25%
same,remaining activity at 100 µM,"JAK2; read-out: residual kinase activity, JAK2",88%
same,remaining activity at 100 µM,"JNK1; read-out: residual kinase activity, JNK1",97%
same,remaining activity at 100 µM,"MLK3; read-out: residual kinase activity, MLK3",59%
same,remaining activity at 100 µM,"SRPK1; read-out: residual kinase activity, SRPK1",84%
same,remaining activity at 100 µM,"PKCγ; read-out: residual kinase activity, PKCγ",103%
same,remaining activity at 100 µM,"PKBa; read-out: residual kinase activity, PKBa",91%
same,remaining activity at 100 µM,"MKK6; read-out: residual kinase activity, MKK6",117%
same,remaining activity at 100 µM,"MSK1; read-out: residual kinase activity, MSK1",93%
same,remaining activity at 100 µM,"ERK2; read-out: residual kinase activity, ERK2",109%
same,remaining activity at 100 µM,"p38d MAPK; read-out: residual kinase activity, p38d MAPK",75%
same,remaining activity at 100 µM,"S6K1; read-out: residual kinase activity, S6K1",63%
same,remaining activity at 100 µM,"PLK1; read-out: residual kinase activity, PLK1",90%
CC(=O)Nc1nc2ccccc2s1 [Compound 03-32],"residual kinase activity, TrkA",TrkA,77
same,"residual kinase activity, PIM1",PIM1,79
same,"residual kinase activity, NEK6",NEK6,92
same,"residual kinase activity, JNK2",JNK2,105
same,"residual kinase activity, HER4",HER4,78
same,"residual kinase activity, CAMK1",CAMK1,99
same,"residual kinase activity, TAK1",TAK1,76
same,"residual kinase activity, AMPK (hum)",AMPK (hum),86
same,"residual kinase activity, PDK1",PDK1,96
same,"residual kinase activity, HIPK2",HIPK2,51
same,"residual kinase activity, JAK2",JAK2,66
same,"residual kinase activity, JNK1",JNK1,97
same,"residual kinase activity, MLK3",MLK3,71
same,"residual kinase activity, SRPK1",SRPK1,59
same,"residual kinase activity, PKCγ",PKCγ,94
same,"residual kinase activity, PKBa","PKBa; 100 micromolar inhibitor concentration, 100 is no change",104
same,"residual kinase activity, MKK6",MKK6,85
same,"residual kinase activity, MSK1",MSK1,98
same,"residual kinase activity, ERK2",ERK2,149
same,"residual kinase activity, p38d MAPK",p38d MAPK,80
same,"residual kinase activity, S6K1",S6K1,92
same,"residual kinase activity, PLK1",PLK1,62
